Data published in publication PMC5877736, “Functional Characteristics, Electrophysiological and Antennal Immunolocalization of General Odorant-Binding Protein 2 in Tea Geometrid, Ectropis obliqua” (International Journal of Molecular Sciences, 2018).
Where two headings read alike, the source gives them in different places.

Assays:
[1] = molecular target: EoblGOBP2 (Ectropis obliqua, UniProt C0JAP5); assay: Competitive fluorescence ligand-binding assay with 1-NPN as fluorescent probe; conditions: for binding to EoblGOBP2 (in words): competitive binding with 1-NPN
EoblGOBP2, sequence (C0JAP5 entry or part of it): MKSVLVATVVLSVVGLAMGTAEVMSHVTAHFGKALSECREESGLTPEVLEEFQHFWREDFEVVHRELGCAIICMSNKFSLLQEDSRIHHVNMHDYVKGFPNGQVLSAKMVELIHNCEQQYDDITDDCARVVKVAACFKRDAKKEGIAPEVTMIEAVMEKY
Description: For EoblGOBP2 binding assays, 1-NPN was used as a competitive fluorescent reporter. When 1-NPN was added dropwise to the protein solution, the maximum emission peak at 340 nm was shifted to about 420 nm. The dissociation constant of 1-NPN to EoblGOBP2 was approximately 2.31 μM calculated using the Scatchard equation (Figure 5A). Using 1-NPN as a fluorescent probe, the binding affinities of EoblGOBP2 to 19 ligands were measured using competitive binding assays. IC50 values and dissociation constants (KD) were then calculated (Table 1).
Ligand-binding assays were performed on a RF-5031pc Fluorescence Spectrophotometer (Shimadzu, Tokyo, Japan). The excitation and emission slits were set to 10 nm. Fluorescence spectra were recorded from 300 to 550 nm with an excitation wavelength of 282 nm. The recombinant EoblGOBP2 protein solutions (1.5 μM), served in 1 cm light path quartz cuvette, were titrated with 1 mM 1-NPN solution in methanol. The fluorescence intensity at the maximum emission wavelength of about 328 nm was linearized using the Scatchard equation [46], then the dissociation constants for 1-NPN (K1-NPN) was calculated.
Nineteen fresh tea leaf volatiles were used as test ligands. For the binding affinities of the ligands to EoblGOBP2, a mixture of 1-NPN and EoblGOBP2 protein was titrated with 1 μM ligands dissolved in methanol. The IC50 values were obtained by data linearization, and the dissociation constants (KD) were calculated using the following equation: KD = [IC50]/(1 + [1-NPN]/K1-NPN), where [1-NPN] is the free concentration of 1-NPN, and K1-NPN is the dissociation constant of the protein/1-NPN complex.

[2] = system: E. obliqua antennae; assay: Electroantennogram (EAG) of male and female antennae; set-up: species or system Ectropis obliqua; conditions: volatiles at 10 mg/mL (Figure 7)
Description: To characterize the relationship between ligand-binding and E. obliqua olfactory activity, seven ligands with strong EoblGOBP2 binding affinities were selected for EAG measurements.
The antennal olfactory responses of E. obliqua to seven candidate tea volatiles were tested by the EAG technique. Prior to EAG experiments, all test ligands were dissolved into liquid paraffin at a concentration of 0.1 (v/v). The fresh […] antenna were excised from its base, and immediately attached onto the fork electrode holder using non-drying clay (Spectra 360 Electrode Gel, Parker Laboratories Inc., Orange, NJ, USA). […] All antennae should be tested in three replicates.
The odor stimulus was performed in the pulse while recording the electroantennogram of antennae. (E)-3-hexenol and liquid paraffin were chosen as the positive and negative control CK, respectively. All antennae were stimulated with five samples, and each tested sample was repeated six times. EAG signals were recorded and analyzed with EAG-Pro software (Syntech, Hilversum, NT). The relative values of EAG response were calculated using the following formula: Sr = (Sc − CKm)/(Rm − CKm)·100% [52]. Where Sr is the relative value of the EAG response, Sc is the EAG response for a certain odor, CKm is the mean of the EAG responses of liquid paraffin before and after the test odor stimulus, and Rm is the mean of the EAG response of (Z)-3-hexenol.

[3] = class symbol, protein 1.5 μM, read-out: KD Dissociation Constant
[4] = calculated from IC50: KD = [IC50]/(1 + [1-NPN]/K1-NPN), protein 1.5 μM, read-out: KD Dissociation Constant
[5] = ligand concentration halving 1-NPN fluorescence, protein 1.5 μM

## C1COCO1 [1,3-dioxolane]
[1]; class symbol, protein 1.5 μM
  IC50: > 50 µM
[1]; [3]
  Kd: > 11.2 µM
[1]
  binding to EoblGOBP2 (in words): could not bind

## c1ccc(Nc2cccc3ccccc23)cc1 [1-NPN, N-phenyl-1-naphthylamine, reference compound]
[1]; direct titration, Scatchard equation, read-out: dissociation constant of 1-NPN to EoblGOBP2
  Kd: ~2.31 µM

## C=CC(O)CC (stereo not drawn) [1-penten-3-ol]
[1]; class symbol, protein 1.5 μM
  IC50: > 50 µM
[1]; [3]
  Kd: > 11.2 µM

## CCCCCCC/C=C/C=O [(E)-2-decenal]
[2]
  EAG response, male versus female antennae: stronger in male antennae than in female antennae
[1]; [4]
  Kd: 20.7 µM
[1]; [5]
  IC50: 92.4 µM

## CCC/C=C/C=O [(E)-2-hexenal]
[2]
  EAG response, male versus female antennae: stronger in male antennae than in female antennae
[1]; [4]
  Kd: 32.2 µM
[1]; [5]
  IC50: 143 µM

## CC/C=C/C=O [(E)-2-pentenal]
[1]; class symbol, protein 1.5 μM
  IC50: > 50 µM
[1]; [3]
  Kd: > 11.2 µM

## CC/C=C\CCO [(Z)-3-hexenol]
[1]; class symbol, protein 1.5 μM
  IC50: > 50 µM
[1]; [3]
  Kd: > 11.2 µM

## CC(=O)c1ccccc1 [Acetophenone]
[2]
  EAG response, male versus female antennae: stronger in male antennae than in female antennae
[1]; [4]
  Kd: 13 µM
[1]; [5]
  IC50: 57.9 µM

## O=Cc1ccccc1 [Benzaldehyde]
[2]
  EAG response, male versus female antennae: stronger in male antennae than in female antennae
[1]; [4]
  Kd: 44.2 µM
[1]; [5]
  IC50: 197 µM

## OCc1ccccc1 [Benzyl alcohol]
[1]; class symbol, protein 1.5 μM
  IC50: > 50 µM
[1]; [3]
  Kd: > 11.2 µM

## CCCCOC(=O)c1ccccc1C(=O)OCCCC [Dibutyl phthalate]
[2]
  EAG response in male and female antennae (in words): weak responses
[1]; [4]
  Kd: 4.35 µM
[1]; [5]
  IC50: 19.4 µM

## CCCCCCCCCCCCCCCC(=O)O [Hexadecanoic acid]
[1]; class symbol, protein 1.5 μM
  IC50: > 50 µM
[1]; [3]
  Kd: > 11.2 µM
[1]
  binding to EoblGOBP2 (in words): could not bind

## C=CC(C)(O)CCC=C(C)C (stereo not drawn) [Linalool]
[1]; class symbol, protein 1.5 μM
  IC50: > 50 µM
[1]; [3]
  Kd: > 11.2 µM

## COC(=O)c1ccccc1O [Methyl salicylate]
[2]
  EAG response, male versus female antennae: stronger in male antennae than in female antennae
[1]; [4]
  Kd: 43.5 µM
[1]; [5]
  IC50: 194 µM

## CC(C)=CCC/C(C)=C\CO [Nerol]
[1]; class symbol, protein 1.5 μM
  IC50: > 50 µM
[1]; [3]
  Kd: > 11.2 µM

## CCOP(=O)(OCC)OCC [Triethyl phosphate]
[1]; class symbol, protein 1.5 μM
  IC50: > 50 µM
[1]; [3]
  Kd: > 11.2 µM

## CCCCCCO [n-hexanol]
[1]; class symbol, protein 1.5 μM
  IC50: > 50 µM
[1]; [3]
  Kd: > 11.2 µM

## CCCCCO [n-pentanol]
[1]; class symbol, protein 1.5 μM
  IC50: > 50 µM
[1]; [3]
  Kd: > 11.2 µM

## CC1=CC[C@@H](C(C)(C)O)CC1 [α-terpineol]
[1]; class symbol, protein 1.5 μM
  IC50: > 50 µM
[1]; [3]
  Kd: > 11.2 µM

## CC(=O)/C=C/C1=C(C)CCCC1(C)C [β-ionone]
[2]
  EAG response in male and female antennae (in words): weak responses
[1]; [4]
  Kd: 12.6 µM
[1]; [5]
  IC50: 56.1 µM
